Assay results published in PubChem BioAssay (NCI).
Values joined by “and” are separate entries in the source; they are usually repeats but may differ in a detail not shown here. Identical values can stand only once.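 Each compound was tested at five concentrations against cells in 96-well plates for 48 hours. GI50: concentration for 50% inhibition of growth. The concentration for full growth arrest is given as TGI.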

What was measured:
Assay in all cases: inhibition of tumour cell growth, NCI panel, 48 h
ACHN renal = system: ACHN renal
BT-549 breast = system: BT-549 breast
HL-60(TB) leukemia = system: HL-60(TB) leukemia
HOP-62 NSCLC = system: HOP-62 NSCLC
HOP-92 NSCLC = system: HOP-92 NSCLC
OVCAR-3 ovarian = system: OVCAR-3 ovarian
PC-3 prostate = system: PC-3 prostate
RXF 393 renal = system: RXF 393 renal
SF-268 CNS = system: SF-268 CNS
SF-539 CNS = system: SF-539 CNS
UACC-62 melanoma = system: UACC-62 melanoma
MDA-MB-231 breast = system: MDA-MB-231 breast

Row | SMILES | TGI (ACHN renal) | TGI (BT-549 breast) | TGI (HL-60(TB) leukemia) | TGI (HOP-62 NSCLC) | TGI (HOP-92 NSCLC) | TGI (OVCAR-3 ovarian) | TGI (PC-3 prostate) | TGI (RXF 393 renal) | TGI (SF-268 CNS) | TGI (SF-539 CNS) | TGI (UACC-62 melanoma) | TGI (MDA-MB-231 breast) | GI50 (HL-60(TB) leukemia) | GI50 (HOP-62 NSCLC) | GI50 (OVCAR-3 ovarian)
1 | CC(C)(C)N1CSC(=S)N(Cc2ccco2)C1 | 13.7 µM | 9.62 µM | 4.03 µM | 19.4 µM | 12.1 µM | 4.94 µM | 13.7 µM | 19.4 µM | 15.1 µM | 2.62 µM | 20 µM |  |  |  | 
2 | N#CCCC1C(C#N)C2(Cl)CC1(Cl)C(Cl)=C2Cl (stereo not given) | > 10 µM |  | > 10 µM | > 10 µM |  | > 10 µM | > 10 µM | > 10 µM | > 10 µM | > 10 µM | > 10 µM | > 10 µM |  |  | 
3 | COC(=O)c1c(C)cccc1C1CN=NC12Cc1ccc(C)cc1C2=O (stereo not given) | > 100 µM |  | 47.1 µM | > 100 µM | > 100 µM | > 100 µM | > 100 µM | > 100 µM | > 100 µM | > 100 µM | 78.5 µM | > 100 µM |  |  | 
4 | CCOC(=O)C1(C/C=C/CBr)Cc2ccccc2C1=O (stereo not given) | 7.19 µM | 8.86 µM | > 100 µM | 14.8 µM |  | 4.54 µM | 19.2 µM | 6.32 µM | 10 µM | 3.39 µM | 5.44 µM | 28.9 µM |  |  | 
5 | O=C(NC(=O)c1ccccc1[N+](=O)[O-])Nc1ccc(Oc2ncc(Br)cn2)c(Cl)c1 | 0.0688 µM |  | 0.0336 µM and 0.0807 µM |  |  | 0.0767 µM |  | 0.0321 µM |  | 0.0524 µM |  |  | 0.0273 µM | 0.0454 µM | < 0.0158 µM
6 | N#Cc1c(N2CCCC2)ncn(-c2ccccc2)c1=O | > 100 µM |  | > 100 µM | > 100 µM | > 100 µM | > 100 µM | > 100 µM | > 100 µM | > 100 µM | > 100 µM | > 100 µM | > 100 µM |  |  | 
7 | c1ccc(N=c2sc3ccccc3nc2Nc2ccccc2)cc1 | > 100 µM |  | > 100 µM | > 100 µM | > 100 µM |  | > 100 µM | > 100 µM | > 100 µM | > 100 µM | > 100 µM | > 100 µM |  |  | 
8 | O=[N+]([O-])c1ccc2c(c1)c(OCc1ccccc1)nn2Cc1ccccc1 | > 100 µM | > 100 µM | > 100 µM | > 100 µM |  | > 100 µM | > 100 µM | > 100 µM | > 100 µM | > 100 µM | > 100 µM | > 100 µM |  |  | 
9 | CN1CCN(C2=NCCO2)CC1 | > 100 µM |  | > 100 µM | > 100 µM |  | > 100 µM | > 100 µM | > 100 µM | > 100 µM | > 100 µM | > 100 µM | > 100 µM |  |  | 
10 | COc1cc(C2c3cc4c(cc3OC(N3CCOCC3)C2C)OCO4)ccc1O (stereo not given) | > 100 µM | > 100 µM | 23.6 µM | > 63.8 µM | > 100 µM | 45.1 µM | > 100 µM | 27.6 µM | > 100 µM | 35.6 µM | > 100 µM |  |  |  | 
11 | COC(=O)C1SC(SC)=NC12c1ccccc1Nc1ccccc12 (stereo not given) | > 100 µM | 58.6 µM | 87.9 µM | > 100 µM | 69.8 µM | 45.8 µM | 87 µM | > 100 µM | > 100 µM | 35.4 µM | 34 µM |  |  |  | 
12 | COc1cccc(C(=O)O[C@H]2[C@@H]3[C@]4(OC(C)=O)CO[C@@H]4C[C@H](O)[C@@]3(C)C(=O)[C@H](OC(C)=O)C3=C(C)[C@@H](OC(=O)[C@H](O)[C@@H](NC(=O)OC(C)(C)C)c4ccco4)C[C@]2(O)C3(C)C)c1 | > 37.5 µM | > 34.1 µM |  | > 32.7 µM |  | < 0.00375 µM |  | > 9.16 µM | > 37.5 µM | 0.33 µM | > 27.6 µM | > 37.5 µM |  |  | 
13 | O=C1/C(=C/c2ccccc2)N=C2Sc3c(nc[nH]c3=O)N12 | > 100 µM |  | > 100 µM | > 100 µM | > 100 µM | > 100 µM | > 100 µM | > 100 µM | > 100 µM | > 100 µM |  | > 100 µM |  |  | 
14 | C[C@]12CCC(O)CC1=CC[C@@H]1[C@@H]2CC[C@]2(C)C(=O)[C@H](n3ccnc3)C[C@@H]12 (stereo not given in full) | > 100 µM |  | 40.7 µM |  | > 100 µM | > 100 µM | > 100 µM | > 100 µM | > 100 µM | > 100 µM | > 100 µM | > 100 µM |  |  | 
15 | Nc1nc(SCCc2ccccc2)c2[nH]cnc2n1 | > 100 µM | > 100 µM |  | > 100 µM | > 100 µM | > 100 µM | > 100 µM | > 100 µM | > 100 µM |  | > 100 µM | > 100 µM |  |  | 
16 | O=C1CCCc2cc3c(cc21)CC1(Cc2ccccc2C1)C3 | 32.9 µM |  | 5.02 µM | 32.6 µM | 53 µM | 6.1 µM | > 100 µM | 82.5 µM |  | 18.7 µM | > 100 µM | 46.6 µM |  |  | 
17 | C[C@@H](NC(=O)[C@@H]1C[C@]1(C)COC(=O)c1cc([N+](=O)[O-])cc([N+](=O)[O-])c1)c1cccc2ccccc12 | > 100 µM | > 100 µM |  | > 100 µM | > 100 µM | > 100 µM | > 100 µM | > 100 µM | > 100 µM |  | > 100 µM | > 100 µM |  |  | 
18 | Cc1n[nH]c(=O)n1/N=C/c1ccc(Cl)cc1 | > 100 µM | > 100 µM |  | > 100 µM | > 100 µM | > 100 µM |  | 72.3 µM | > 100 µM | > 100 µM | > 100 µM |  |  |  | 
19 | COc1ccc(C2CC(c3c(O)ccc4ccccc34)=NN2C(C)=O)cc1OC (stereo not given) | > 100 µM | 43.9 µM |  | 94.4 µM | > 100 µM | 69.6 µM | > 100 µM | 84.2 µM | > 100 µM | 48.9 µM | 29.7 µM | 56.5 µM |  |  | 
20 | C=C(C)C(=O)OC1C/C(CO)=C\C(O)C/C(C)=C/C2OC(=O)C(=C)C21 (stereo not given) | 48.4 µM |  |  | > 100 µM | 38.2 µM | 59.4 µM |  |  | 57.8 µM | 46.3 µM | 39.1 µM |  |  |  | 
21 | CCCCC#C[I+]c1ccccc1 | 30.9 µM |  | 40.1 µM | 37.6 µM | 24.1 µM | 30.7 µM |  | 36.9 µM | 39.7 µM | 38.8 µM | 33 µM |  |  |  | 
